Laboratory results published in article PMC7249006, “Discovery of Novel Pyridazine-Based Cyclooxygenase-2 Inhibitors with a Promising Gastric Safety Profile” (Molecules, 2020).
“Also recorded” adds a separate entry of the source.

What was measured:
gastric mucosa = experiment: Lipid peroxidation studies (MDA content of gastric mucosa, TBA method); conditions: gastric mucosa after the ulcerogenic activity test, 10 mg/kg orally
Description: A decrease in the MDA content is a measure to assess the non-ulcerogenic effect of a compound.
The obtained mixture was extracted with a 5-mL mixture (15:1 v/v) of n-butanol and pyridine and centrifuged at 4000 rpm for 10 min. […] A standard linear curve (absorbance vs. concentration in nM) was prepared using MDA tetrabutylammonium salt. The lipid peroxidation was calculated from the standard curve. The results are expressed as nmol MDA 100 mg^−1 tissues.

[1] = target: T1, (Ovis aries, UniProt P05979); experiment: In vitro COX-1 inhibition assay (Cayman kit 560131, ELISA); assay type: biochemical, human; conditions: N = 3, Mean ± SD
T1 construct: purchased Cayman Chemicals 560131
T1 sequence (P05979 25-600): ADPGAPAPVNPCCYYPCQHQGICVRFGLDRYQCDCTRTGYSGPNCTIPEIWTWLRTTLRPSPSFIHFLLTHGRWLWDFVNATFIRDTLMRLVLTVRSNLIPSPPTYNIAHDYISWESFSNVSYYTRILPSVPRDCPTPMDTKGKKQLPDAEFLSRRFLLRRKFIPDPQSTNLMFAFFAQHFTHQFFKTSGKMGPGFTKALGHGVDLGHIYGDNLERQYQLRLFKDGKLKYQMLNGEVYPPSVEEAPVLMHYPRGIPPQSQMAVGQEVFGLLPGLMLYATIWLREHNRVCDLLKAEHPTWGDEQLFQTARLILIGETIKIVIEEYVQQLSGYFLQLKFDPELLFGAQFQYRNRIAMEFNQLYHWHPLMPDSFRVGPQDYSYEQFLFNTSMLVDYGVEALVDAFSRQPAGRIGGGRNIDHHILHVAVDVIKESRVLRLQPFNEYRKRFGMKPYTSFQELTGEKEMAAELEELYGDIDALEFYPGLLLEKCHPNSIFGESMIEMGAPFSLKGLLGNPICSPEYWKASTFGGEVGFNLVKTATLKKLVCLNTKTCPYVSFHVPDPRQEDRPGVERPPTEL
Description: (§1) The supplier’s instructions were followed to prepare the reagents as well as to perform the experiment. Briefly, samples (20 μL), the COX-1 and COX-2 enzyme (10 μL), and heme (10 μL) were mixed with the buffer solution (160 μL), which was supplied with the kits. […] A saturated solution of stannous chloride (30 μL) was added after 2 min to halt the COX reaction. The resultant mixture was incubated at ambient temperature for 5 min. The Prostaglandin-2α (PGF2α) developed after the COX reaction was measured through ELISA. […] The plate was washed to get rid of the unbound components. […] The IC50 values of COX-1 and COX-2 were determined by the regression analysis.

human COX-2 = target: T2, human COX-2 (Homo sapiens, UniProt P35354); experiment: In vitro COX-2 inhibition assay (Cayman kit 560131, ELISA); assay type: biochemical; conditions: for SI (Selectivity index): IC50 for COX-1/IC50 for COX-2; for IC50: N = 3, Mean ± SD; for %SI: selectivity index normalized to celecoxib = 100%
T2 construct: purchased Cayman Chemicals 560131
T2 sequence (P35354 18-604): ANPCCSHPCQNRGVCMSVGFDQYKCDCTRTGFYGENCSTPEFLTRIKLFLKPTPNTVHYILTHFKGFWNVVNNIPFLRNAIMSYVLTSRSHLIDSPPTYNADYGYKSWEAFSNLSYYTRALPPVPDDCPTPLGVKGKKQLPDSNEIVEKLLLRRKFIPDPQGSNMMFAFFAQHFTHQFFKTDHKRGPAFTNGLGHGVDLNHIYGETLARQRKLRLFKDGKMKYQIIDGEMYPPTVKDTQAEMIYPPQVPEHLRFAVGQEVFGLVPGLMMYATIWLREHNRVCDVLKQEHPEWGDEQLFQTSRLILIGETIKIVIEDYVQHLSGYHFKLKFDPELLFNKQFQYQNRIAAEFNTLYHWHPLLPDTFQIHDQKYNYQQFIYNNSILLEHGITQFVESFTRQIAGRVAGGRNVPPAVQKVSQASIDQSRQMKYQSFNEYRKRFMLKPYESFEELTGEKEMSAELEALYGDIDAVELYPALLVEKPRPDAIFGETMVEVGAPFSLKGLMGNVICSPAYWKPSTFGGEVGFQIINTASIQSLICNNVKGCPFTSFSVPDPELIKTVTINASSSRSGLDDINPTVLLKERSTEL
Description: as §1

gastric ulcers in rats = experiment: Gastric ulcerogenic activity; conditions: 10 mg/kg orally; for ulcerogenic effect (in words): rats; for Score: No of Gastric Ulcers / Score: Severity Lesions: rats fasted 18 h, sacrificed after 4 h, Mean ± SE
Description: A total of eight groups of rats were utilized, wherein each group comprised of six rats.
The eight groups of rats were fasted for 18 h, wherein each group consisted of 6 rats. […] Saline solution (1 mL) was given to the control group. The animals were sacrificed after 4 h to isolate their stomachs. A longitudinal cut was made along the greater curvature, and the presence of ulcers was evaluated. The counting of ulcers was marked as 0 (no ulcer) to 5 (≥ 3 ulcers) [30].

COc1ccc2c(c1)c(CC(=O)O)c(C)n2C(=O)c1ccc(Cl)cc1 [Indomethacin, indomethacin, reference compound]
MDA Content in nmol (100 mg Tissue) (gastric mucosa): 8.90 ± 0.18 nmol (100 mg Tissue)

COC(=O)C=C1SC(=NN=Cc2ccc(-n3nc(-c4ccccc4)ccc3=O)cc2)N(c2ccccc2)C1=O [Compound 18, Methyl2-(4-oxo-2-((4-(6-oxo-3-phenylpyridazin-1(6H)-yl)benzylidene)hydrazinylidene) -3-phenylthiazolidin-5-ylidene)acetate]
IC50 [1]: 255 ± 0.2 nM
SI (Selectivity index) (human COX-2): 11.01
IC50 (human COX-2): 23.1 ± 0.5 nM
%SI (human COX-2): 61.23%

O=C1CSC(=NN=Cc2ccc(-n3nc(-c4ccccc4)ccc3=O)cc2)N1c1ccccc1 [Compound 17, 2-((4-(6-oxo-3-phenylpyridazin-1(6H)-yl)benzylidene)hydrazineylidene)-3-phenyl thiazolidin-4-one]
IC50 [1]: 285 ± 0.16 nM
IC50 (human COX-2): 17.7 ± 0.18 nM
ulcerogenic effect (in words) (gastric ulcers in rats): insignificant ulcerogenic effects
Score: No of Gastric Ulcers (gastric ulcers in rats): 0.42 ± 0.10
Score: Severity Lesions (gastric ulcers in rats): 0.20 ± 0.50
MDA Content in nmol (100 mg Tissue) (gastric mucosa): 4.11 ± 0.18 nmol (100 mg Tissue)

O=c1ccc(-c2ccccc2)nn1-c1ccc(C=NNc2nc(-c3ccccc3)cs2)cc1 [Compound 9a, 6-Phenyl-2-(4-((2-(4-phenylthiazol-2-yl)hydrazinylidene)methyl)phenyl)pyridazin-3(2H)-one]
IC50 [1]: 330 ± 0.28 nM
IC50 (human COX-2): 15.5 ± 0.55 nM
melting point: 280 to 281 °C
ulcerogenic effect (in words) (gastric ulcers in rats): No ulcerogenic effects; also recorded: did not produce any ulcerogenic impact; also recorded: devoid of any ulcerogenic effect
Score: No of Gastric Ulcers (gastric ulcers in rats): 0
Score: Severity Lesions (gastric ulcers in rats): 0
MDA Content in nmol (100 mg Tissue) (gastric mucosa): 3.05 ± 0.12 nmol (100 mg Tissue)

Cc1ccc(-c2cc(C(F)(F)F)nn2-c2ccc(S(N)(=O)=O)cc2)cc1 [Celecoxib, celecoxib, reference compound]
MDA Content in nmol (100 mg Tissue) (gastric mucosa): 6.11 ± 0.50 nmol (100 mg Tissue)

O=C1N=C(NN=Cc2ccc(-n3nc(-c4ccccc4)ccc3=O)cc2)SC1=C1C(=O)Nc2ccccc21 [Compound 12, 2-(2-(4-(6-oxo-3-phenylpyridazin-1(6H)-yl)benzylidene)hydrazineyl)-5-(2-oxoindolin-3-ylidene) thiazol-4(5H)-one]
IC50 [1]: 295 ± 0.28 nM
IC50 (human COX-2): 17.1 ± 0.19 nM
ulcerogenic effect (in words) (gastric ulcers in rats): No ulcerogenic effects; also recorded: did not produce any ulcerogenic impact; also recorded: devoid of any ulcerogenic effect
Score: No of Gastric Ulcers (gastric ulcers in rats): 0
Score: Severity Lesions (gastric ulcers in rats): 0
MDA Content in nmol (100 mg Tissue) (gastric mucosa): 2.95 ± 0.44 nmol (100 mg Tissue)

COC(=O)C=C1SC(=NN=Cc2ccc(-n3nc(-c4ccccc4)ccc3=O)cc2)NC1=O [Compound 10, Methyl2-(4-oxo-2-((4-(6-oxo-3-phenylpyridazin-1(6H)-yl)benzylidene)hydrazineylidene) -thiazolidin-5-ylidene)acetate]
IC50 [1]: 285 ± 0.15 nM
SI (Selectivity index) (human COX-2): 12.89
IC50 (human COX-2): 22.1 ± 0.55 nM
%SI (human COX-2): 71.69%

O=C1N=C(N/N=C/c2ccc(-n3nc(-c4ccccc4)ccc3=O)cc2)S/C1=C\c1ccc(Cl)cc1 [Compound 16a, 5-(4-Chlorobenzylidene)-2-(2-(4-(6-oxo-3-phenylpyridazin-1(6H)-yl)benzylidene)-hydra-zinyl)thiazol-4(5H)-one]
IC50 [1]: 275 ± 0.1 nM
SI (Selectivity index) (human COX-2): 12.40
IC50 (human COX-2): 22.2 ± 0.44 nM
%SI (human COX-2): 68.96%
melting point: 297 to 298 °C

CN(C)C=C1SC(NN=Cc2ccc(-n3nc(-c4ccccc4)ccc3=O)cc2)=NC1=O [Compound 11, 5-((dimethylamino)methylene)-2-(2-(4-(6-oxo-3-phenylpyridazin-1(6H)-yl)benzylidene) hydrazineyl) thiazol-4(5H)-one]
IC50 [1]: 270 ± 0.24 nM
SI (Selectivity index) (human COX-2): 10.75
IC50 (human COX-2): 25.11 ± 0.11 nM
%SI (human COX-2): 59.78%

O=c1ccc(-c2ccccc2)nn1-c1ccc(C=NNc2nc(-c3ccc(Br)cc3)cs2)cc1 [Compound 9b, 2-(4-((2-(4-(4-Bromophenyl)thiazol-2-yl)hydrazineylidene)methyl)phenyl)-6-phenylpyridazin-3(2H)-one]
IC50 [1]: 275 ± 0.42 nM
IC50 (human COX-2): 17.5 ± 0.6 nM
melting point: 261 to 262 °C
ulcerogenic effect (in words) (gastric ulcers in rats): insignificant ulcerogenic effects
Score: No of Gastric Ulcers (gastric ulcers in rats): 0.33 ± 0.38
Score: Severity Lesions (gastric ulcers in rats): 0.26 ± 0.16
MDA Content in nmol (100 mg Tissue) (gastric mucosa): 3.89 ± 0.50 nmol (100 mg Tissue)

CC1SC(NN=Cc2ccc(-n3nc(-c4ccccc4)ccc3=O)cc2)=NC1=O (stereo not drawn) [Compound 6b, 5-Methyl-2-(2-(4-(6-oxo-3-phenylpyridazin-1(6H)-yl)benzylidene)hydrazineyl)thiazol-4(5H)-one]
IC50 [1]: 280 ± 0.5 nM
SI (Selectivity index) (human COX-2): 12.30
IC50 (human COX-2): 22.75 ± 0.1 nM
%SI (human COX-2): 68.40%
melting point: 285 to 286 °C

O=C1CSC(NN=Cc2ccc(-n3nc(-c4ccccc4)ccc3=O)cc2)=N1 [Compound 6a, 2-(2-(4-(6-Oxo-3-phenylpyridazin-1(6H)-yl)benzylidene)hydrazineyl)thiazol-4(5H)-one]
IC50 [1]: 260 ± 0.22 nM
SI (Selectivity index) (human COX-2): 10.35
IC50 (human COX-2): 25.1 ± 0.15 nM
%SI (human COX-2): 57.56%
melting point: 250 to 252 °C

CCOC(=O)c1sc(N/N=C/c2ccc(-n3nc(-c4ccccc4)ccc3=O)cc2)nc1C [Compound 8, Ethyl 4-methyl-2-(2-(4-(6-oxo-3-phenylpyridazin-1(6H)-yl)benzylidene)hydrazineyl) thiazole-5-carboxylate]
IC50 [1]: 250 ± 0.12 nM
SI (Selectivity index) (human COX-2): 10.33
IC50 (human COX-2): 24.18 ± 0.14 nM
%SI (human COX-2): 57.45%
melting point: 245 to 246 °C

NN=Cc1ccc(-n2nc(-c3ccccc3)ccc2=O)cc1 [Compound 4a, 2-(4-(Hydrazineylidenemethyl)phenyl)-6-phenylpyridazin-3(2H)-one]
IC50 [1]: 235 ± 0.11 nM
SI (Selectivity index) (human COX-2): 8.97
IC50 (human COX-2): 26.2 ± 0.5 nM
%SI (human COX-2): 49.88%
melting point: 235 to 236 °C

COc1ccc(/C=C2\SC(N/N=C/c3ccc(-n4nc(-c5ccccc5)ccc4=O)cc3)=NC2=O)cc1 [Compound 16b, 5-(4-Methoxybenzylidene)-2-(2-(4-(6-oxo-3-phenylpyridazin-1(6H)-yl)benzylidene)hydra-zineyl)thiazol-4(5H)-one]
IC50 [1]: 315 ± 0.33 nM
IC50 (human COX-2): 16.9 ± 0.16 nM
melting point: > 300 °C
ulcerogenic effect (in words) (gastric ulcers in rats): insignificant ulcerogenic effects
Score: No of Gastric Ulcers (gastric ulcers in rats): 0.12 ± 0.30
Score: Severity Lesions (gastric ulcers in rats): 0.18 ± 0.22
MDA Content in nmol (100 mg Tissue) (gastric mucosa): 3.45 ± 0.28 nmol (100 mg Tissue)
